Consider three compounds from ChEMBL document CHEMBL1158300, “New Cephalotaxus Alkaloids from Cephalotaxus harringtonia var. drupacea” (J Nat Prod, 1996).

Each structure is given as a SMILES string. In brackets after ≈: the same amount, converted by molar mass.

For orientation: IC50 means the point on the concentration scale where inhibition reaches its midpoint.

For this assay, the system named is P388. Description: Cytotoxicity against mouse P388 cells. The assay is classed as functional, cell-based.
In the case of `COC(=O)C[C@](O)(CCCCC(C)C)C(=O)O[C@@H]1C(OC)=C[C@]23CCCN2CCc2cc4c(cc2[C@H]13)OCO4` [BISHOMODEOXYHARRINGTONINE], inhibition was half-maximal at 0.024 µg/mL (≈ 0.0441 µM) (IC50).

`COC(=O)C[C@](O)(CCCC(C)C)C(=O)O[C@@H]1C(OC)=C[C@]23CCCN2CCc2cc4c(cc2[C@H]13)OCO4` [HOMODEOXYHARRINGTONINE] gave an IC50 of 0.056 µg/mL (≈ 0.106 µM).

`COC(=O)C[C@](O)(CC(C)C)C(=O)O[C@@H]1C(OC)=C[C@]23CCCN2CCc2cc4c(cc2[C@H]13)OCO4` [NORDEOXYHARRINGTONINE]: the 50% inhibitory concentration (IC50) is 0.027 µg/mL (≈ 0.0538 µM).
